Earlier results, collected in US12263157B2, “Aldosterone synthase inhibitors for treating chronic kidney disease” (Boehringer Ingelheim International GmbH, priority 2021, dated 2025).

How the values were obtained:
[1] = test system: patients with heart failure with reduced ejection fraction; settings: overall trial population
[2] = test system: people with type 2 diabetes
[3] = test system: patients with diabetic kidney disease; settings: on top of standard of care

SMILES	reduction of the risk of the exploratory composite renal endpoint (chronic dialysis, kidney transplant, or sustained reduction in eGFR) [1] [%]	HR for the composite outcome of doubling of creatinine, the need to start kidney replacement therapy, or renal death ([2]; exploratory analysis, 95% CI 0.40-0.75)	reduction of the incidence of the composite outcome of doubling of creatinine, the need to start kidney replacement therapy, or renal death ([2]; exploratory analysis, people with type 2 diabetes) [%]	risk of hyperkalaemia or acute kidney injury ([2]; regardless of baseline ACEi or ARB use)	relative risk reduction for the composite endpoint of doubling of serum creatinine, ESRD or renal/CV death [3] [%]
OC[C@H]1O[C@@H](c2ccc(Cl)c(Cc3ccc(O[C@H]4CCOC4)cc3)c2)[C@H](O)[C@@H](O)[C@@H]1O [empagliflozin]	50	0.54	46	no evidence of an increased risk	–
Cc1ccc([C@@H]2O[C@H](CO)[C@@H](O)[C@H](O)[C@H]2O)cc1Cc1ccc(-c2ccc(F)cc2)s1 [canagliflozin]	–	–	–	–	30
